Measured values: patent publication US20240059693A1, “FUSED BICYCLIC PYRAZOLE DERIVATIVES AND METHODS OF USE THEREOF FOR THE TREATMENT OF HERPESVIRUSES” (Merck Sharp & Dohme LLC, priority 2020, published 2024)
Like-named read-outs stand apart in the source and are kept apart here.

Legend:
[1] = biological target: T1, Human cytomegalovirus DNA polymerase (Human cytomegalovirus, UniProt P08546); experiment: HCMV polymerase assay (AlphaLISA); format: biochemical; conditions: HCMV DNA polymerase 0.2 nM, 60 minutes at 37° C.; read-out: CMV (IC50)
T1 construct: made in house; host or cells: SF21 insect cells (baculovirus vector)
T1 sequence (P08546 whole entry): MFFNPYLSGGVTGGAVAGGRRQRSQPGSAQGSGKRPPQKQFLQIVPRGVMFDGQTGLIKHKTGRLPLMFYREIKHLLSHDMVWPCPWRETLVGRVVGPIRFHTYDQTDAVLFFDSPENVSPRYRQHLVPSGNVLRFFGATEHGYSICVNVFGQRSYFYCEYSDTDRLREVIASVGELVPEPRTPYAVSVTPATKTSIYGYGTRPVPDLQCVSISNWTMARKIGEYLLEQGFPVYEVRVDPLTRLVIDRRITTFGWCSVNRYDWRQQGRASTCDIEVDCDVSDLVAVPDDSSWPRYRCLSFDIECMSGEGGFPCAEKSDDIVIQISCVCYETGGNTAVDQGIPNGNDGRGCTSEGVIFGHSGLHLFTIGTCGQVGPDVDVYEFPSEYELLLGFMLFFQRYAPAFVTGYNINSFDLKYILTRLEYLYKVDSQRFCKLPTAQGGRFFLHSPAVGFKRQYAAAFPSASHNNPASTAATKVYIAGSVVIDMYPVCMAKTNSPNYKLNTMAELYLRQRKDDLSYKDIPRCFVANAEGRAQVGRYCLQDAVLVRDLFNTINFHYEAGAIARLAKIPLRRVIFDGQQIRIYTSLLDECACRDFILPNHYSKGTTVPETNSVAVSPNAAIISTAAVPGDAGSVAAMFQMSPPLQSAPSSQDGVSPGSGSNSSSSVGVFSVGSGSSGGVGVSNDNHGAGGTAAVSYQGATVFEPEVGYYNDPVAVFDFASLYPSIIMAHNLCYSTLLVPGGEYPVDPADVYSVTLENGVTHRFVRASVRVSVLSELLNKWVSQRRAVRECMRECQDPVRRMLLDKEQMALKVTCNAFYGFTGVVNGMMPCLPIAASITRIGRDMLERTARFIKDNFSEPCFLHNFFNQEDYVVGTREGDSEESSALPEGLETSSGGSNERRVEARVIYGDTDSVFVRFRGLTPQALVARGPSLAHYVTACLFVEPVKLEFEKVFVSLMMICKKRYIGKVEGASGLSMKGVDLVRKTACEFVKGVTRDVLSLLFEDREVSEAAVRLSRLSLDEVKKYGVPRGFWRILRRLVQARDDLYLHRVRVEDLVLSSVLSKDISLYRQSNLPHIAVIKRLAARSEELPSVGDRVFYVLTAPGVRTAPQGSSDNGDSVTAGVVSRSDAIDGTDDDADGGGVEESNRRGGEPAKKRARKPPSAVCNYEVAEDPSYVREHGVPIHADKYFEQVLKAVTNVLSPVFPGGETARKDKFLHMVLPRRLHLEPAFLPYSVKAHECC
Description: Human cytomegalovirus and varicella zoster virus DNA polymerases were expressed via baculovirus vector in SF21 cells and purified. Heterodimeric nucleic acid substrate used in the herpesvirus polymerase reactions was generated by annealing a 59-mer template to a 17-mer digoxigenin-labeled primer. Polymerase (HCMV final concentration of 0.2 nM; VZV final concentration of 0.4 nM) was combined with an inhibitor compound or DMSO in assay buffer (10 mM HEPES, pH 7.5, 25 mM KCl, 25 mM NaCl, 5 mM MgCl2, 5% glycerol, 0.67 mg/ml bovine serum albuminutes, and 1 mM tris(2-carboxyethyl)phosphine), and this mixture was pre-incubated for 30 minutes at room temperature in 384-well microtiter plates. The polymerization reaction was initiated by the addition of template/primer substrate (final concentration: 1.6 nM), and dNTPs (final concentration: 24 nM dCTP, 24 nMdGTP, 16 nM dATP, 16 nM dTTP, and 0.8 nM biotin-dUTP). After 60 minutes incubation at 37° C., reactions were terminated with quench buffer (25 mM HEPES pH 7.5, 100 mM NaCl, 0.25% Tween-20, 12 mM EDTA, and 1 mg/ml bovine serum albumin). Incorporation of biotinylated UTP was detected with 2.5-ug/ml anti-DIG AlphaLISA acceptor beads and 5-10 ug/ml streptavidin AlphaLISA donor beads (Perkin Elmer). Compound effects were normalized to the window defined by the controls (DMSO only and pre-quenched wells) and were fit using a 4-parameter algorithm to report an IC50.

HCMV Strain AD169 = experiment: Viral qPCR assay, HCMV in MRC-5 cells; format: cell-based, Human cytomegalovirus; conditions: read-out: CMV MRC5 Cell (EC50)
Description: (§1) MRCS cells, Vero cells, and MeWo cells were obtained from ATCC and were maintained at 37° C./5% CO2/90% relative humidity in Minimal Essential Medium with 10% fetal bovine serum, […] L-glutamine, 100 units/ml penicillin and 100 ug/ml streptomycin. Assay plates were prepared by dispensing compounds dissolved in DMSO into wells of 384 well collagen-coated plates using an ECHO acoustic dispenser. Each compound was tested in a 10-point, serial 3-fold dilution. Controls included uninfected cells and infected cells treated only with DMSO. Assays were initiated by mixing selected cells, in suspension, with virus, and dispensing 50 μl/well infected cells to pre-plated compounds. Plates were incubated at 37° C./5% CO2/90% relative humidity for ˜72 hrs to permit genomic replication, and infected cells were lysed by the addition of an equal volume of lysis buffer (10 mM Tris-HCl, pH8, 50 mM KCl, 2 mM MgCl2, 0.45% NP-40, 0.45% Tween-20, and 100 μg/ml proteinase K). An aliquot of the lysate was transferred to a 384-well PCR plate and incubated at 56° C. for 1 hour and then at 95° C. for 10 min. Levels of a viral gene and of the cellular control, PPIA (Thermo Fisher Assay ID=Hs04194521_s1), were measured in separate 10 μL qPCR assays using TaqMan® Gene Expression Master Mix (Applied Biosystems), and an 7900HT Fast Real-Time PCR System with 384-Well Block Module. 7-point, serial 10-fold dilutions of a plasmid standard were run on each plate to generate a standard curve, and genome copies numbers were calculated by plotting experimental Ct onto linear regression of the standard curve. Viral genome copy numbers were normalized by cellular control copy number, and compound effects were normalized to the window defined by the controls. Calculated % effects were fit using a 4-parameter algorithm, and EC50 was reported.
as §1, with “gene” for “gene and of the cellular control, PPIA (Thermo Fisher Assay ID=Hs04194521_s1),”, “in” for “in separate”, “Compound effects on viral” for “Viral”, “number” for “numbers were normalized by cellular control copy number, and compound effects”
HCMV: Strain AD169 Street was assayed in MRC-5 cells and was used at 0.05-0.1 pfu/cell. The assays were performed in either growth media or in the same media with 50% fetal bovine serum. Primer-probe set was Thermo Fisher Assay ID=AIFATFK.

[2] = Human betaherpesvirus 5, AD169, MRC5, 72 h

Row | Structure (SMILES) | IC50 [1] [µM] | EC50 (HCMV Strain AD169; [2]) [µM] | EC50 (HCMV Strain AD169; MRC5 cells, ~72 hrs) [µM]
1 | CC(C)[C@@H]1c2c(c(C(=O)NCc3ccc(Cl)cc3)nn2C)CN1C[C@@H]1CCC(=O)N1 [Compound 114] | 0.0776 | 1.1 | 
2 | CC(C1CC(F)(F)C(=O)N1)N1Cc2c(C(=O)NCc3ccc(Cl)cc3)nn(C)c2C1 (stereo not drawn) [Compound 85] | 1.05 |  | 3.37
3 | CC(C)(C)c1csc(-n2nc(C(=O)NCc3ccc(Cl)cc3)c3c2CN(C[C@H]2CCC(=O)N2)C3)n1 [Compound 21] | 0.157 | 2.67 | 
4 | O=C1CC[C@H](CN2Cc3c(C(=O)NCc4ccc(Cl)cc4)nn(-c4ncc(CO)s4)c3C2)N1 [Compound 9] | 0.0192 | 0.644 | 
5 | CCC(C1CCC(=O)N1)N1Cc2c(C(=O)NCc3ccc(Cl)cc3)nn(C)c2C1 (single isomer, unassigned) [Compound 89] | 0.8 | 7.64 | 
6 | O=C1CC[C@@H](CN2Cc3c(C(=O)NCc4ccc(Cl)cc4)nn([C@H]4CCCOC4)c3C2)N1 [Compound 52] | 0.15 | 0.885 | 
7 | CC(C)[C@H]1c2c(c(C(=O)NCc3ccc(Cl)cc3)nn2C)CN1C(C)C1CCC(=O)N1 (single isomer, unassigned) [Compound 115] | 0.566 | 4.24 | 
8 | O=C(NCc1ccc(Cl)cc1)c1nn(CCNC(=O)C2CCC2)c2c1CN(Cc1c(F)cncc1F)C2 [Compound 64] | 0.064 |  | 
9 | O=C1CC[C@H](CN2Cc3c(C(=O)NCc4ccc(Cl)cc4)nn(-c4ncc[nH]4)c3C2)N1 [Compound 14] | 0.0258 | 1.03 | 
10 | CC(=O)OCC1c2c(c(C(=O)NCc3ccc(Cl)cc3)nn2C)CN1C[C@H]1CCC(=O)N1 (single isomer, unassigned) [Compound 119] | 7.85 |  | 99
11 | CC(C)[C@H]1c2c(c(C(=O)NCc3ccc(Cl)cc3)nn2C)CN1C[C@H]1CCC(=O)N1 [Compound 113] | 0.188 |  | 4.83
12 | C=CC[C@]1(CN2Cc3c(C(=O)NCc4ccc(Cl)cc4)nn(C)c3C2)CCC(=O)N1 [Compound 96] | 0.144 | 1.12 | 
13 | CC1c2c(c(C(=O)NCc3ccc(Cl)cc3)nn2C)CN1CC1CCC(=O)N1 (single isomer, unassigned) [Compound 108] | 0.702 |  | 1.96
14 | CC(C)C(O)Cn1nc(C(=O)NCc2ccc(Cl)cc2)c2c1CN(C[C@H]1CCC(=O)N1)C2 (stereo partly drawn) [Compound 56] | 0.129 | 1.79 | 
15 | O=C(NCc1ccc(Cl)cc1)c1nn(C(F)F)c2c1CN(CC13CC(C1)C(=O)N3)C2 [Compound 98] | 0.534 | 1.4 | 
16 | CC(C1CC(F)C(=O)N1)N1Cc2c(C(=O)NCc3ccc(Cl)cc3)nn(C)c2C1 (stereo not drawn) [Compound 75] | 0.0709 |  | 2.02
17 | CC(C1CC(F)(F)C(=O)N1)N1Cc2c(C(=O)NCc3ccc(Cl)cc3)nn(C)c2C1 (single isomer, unassigned) [Compound 83] | 13.3 | 99 | 
18 | CC1c2c(c(C(=O)NCc3ccc(Cl)cc3)nn2C)CN1C(C)C1CCC(=O)N1 (stereo not drawn) [Compound 110] | 2.9 |  | 22.2
19 | CC(C1CC(F)(F)C(=O)N1)N1Cc2c(C(=O)NCc3ccc(Cl)cc3)nn(C)c2C1 (stereo not drawn) [Compound 84] | 13.3 |  | 40

Row | Structure (SMILES) | IC50 [1] [µM] | EC50 (HCMV Strain AD169; [2]) [µM] | EC50 (HCMV Strain AD169; MRC5 cells, ~72 hrs) [µM]
20 | O=C1CC[C@@H](CN2Cc3c(C(=O)NCc4ccc(Cl)cc4)nn(C4CCC(F)(F)C4)c3C2)N1 (single isomer, unassigned) [Compound 54] | 0.146 |  | 1.58
21 | O=C(NCc1ccc(Cl)cc1)c1nn(CCNC(=O)C2CCC2)c2c1CN(Cc1ccnc(F)c1)C2 [Compound 67] | 0.119 |  | 
22 | Cn1nc(C(=O)NCc2ccc(Cl)cc2)c2c1CN(CC1CCC(=O)N1)C2 (stereo not drawn) [Compound 88] | 13.3 |  | 33
23 | CC1c2c(c(C(=O)NCc3ccc(Cl)cc3)nn2C)CN1CC1CCC(=O)N1 (single isomer, unassigned) [Compound 102] | 5.77 |  | 71.2
24 | CC([C@@H]1CCC(=O)N1)N1Cc2c(C(=O)NCc3ccc(Cl)cc3)nn(C(F)F)c2C1 (stereo partly drawn) [Compound 72] | 0.976 |  | 
25 | O=C1CC[C@@H](CN2Cc3c(C(=O)NCc4ccc(Cl)cc4)nn(C4CCOCC4)c3C2)N1 [Compound 53] | 0.124 | 2.09 | 
26 | CC(C)[C@H]1c2c(c(C(=O)NCc3ccc(Cl)cc3)nn2C)CN1C(C)C1CCC(=O)N1 (single isomer, unassigned) [Compound 118] | 0.0837 |  | 1.6
27 | Cn1nc(C(=O)NCc2ccc(Cl)cc2)c2c1CN(C[C@H]1CC(F)(F)C(=O)N1)C2 [Compound 81] | 0.557 | 1.28 | 
28 | Cn1nc(C(=O)NCc2ccc(C#N)c(F)c2)c2c1CN(C[C@H]1CCC(=O)N1)C2 [Compound 62] | 0.0625 |  | 
29 | CC([C@@H]1CCC(=O)N1)N1Cc2c(C(=O)NCc3ccc(Cl)cc3)nn(-c3nccs3)c2C1 (single isomer, unassigned) [Compound 6] | 0.958 |  | 5.87
30 | Cc1nnc2n1C(CN1Cc3c(C(=O)NCc4ccc(Cl)cc4)nn(C)c3C1)CC2 (stereo not drawn) [Compound 97] | 0.174 |  | 
31 | O=C1CC[C@H](CN2Cc3c(C(=O)NCc4ccc(Cl)cc4)nn([C@H]4CCCOC4)c3C2)N1 [Compound 51] | 0.129 | 1.79 | 
32 | O=C1CC[C@H](CN2Cc3c(C(=O)NCc4ccc(Cl)cc4)nn(C4CCOCC4)c3C2)N1 [Compound 50] | 0.125 | 1.49 | 
33 | Cn1nc(C(=O)NCc2ccc(Cl)cc2)c2c1C(CO)N(C[C@H]1CCC(=O)N1)C2 (single isomer, unassigned) [Compound 121] | 13.3 | 99 | 
34 | CC(C)[C@H]1c2c(c(C(=O)NCc3ccc(Cl)cc3)nn2C)CN1C(C)C1CCC(=O)N1 (single isomer, unassigned) [Compound 116] | 10.9 |  | 99
35 | CCC(C1CCC(=O)N1)N1Cc2c(C(=O)NCc3ccc(Cl)cc3)nn(C)c2C1 (stereo not drawn) [Compound 92] | 1.18 |  | 65.9
36 | CCC1c2c(c(C(=O)NCc3ccc(Cl)cc3)nn2C)CN1CC1CCC(=O)N1 (single isomer, unassigned) [Compound 104] | 1.81 |  | 38.7
37 | CN(CCn1nc(C(=O)NCc2ccc(Cl)cc2)c2c1CN(Cc1ccncc1Cl)C2)C(=O)C1CCC1 [Compound 65] | 0.0645 |  | 
38 | O=C(NCc1ccc(Cl)cc1)c1nn(CCNC(=O)C2CCC2)c2c1CN(Cc1ccncc1Cl)C2 [Compound 70] | 1.71 |  | 
